This test addresses T1, human HSD1 (recombinant HSD1) (Homo sapiens, UniProt P28845).
T1 construct: made in house
Kind of test: In vitro HSD1 activity inhibitory action, SPA of cortisone to cortisol conversion. As to conditions: recombinant human HSD1 0.1 μg/ml, 500 μM NADPH, 16 nM 3H cortisone, room temperature 90 min, read-out: hHSD1 IC50. The test is classed as biochemical. How it is done: In Vitro HSD1 (Hydroxysteroid Dehydrogenase 1) Activity Inhibitory Action
The HSD1 inhibitory activity was examined by quantitative determination by an SPA (scintillation proximity assay) system of the suppressive action on the conversion from cortisone to cortisol using human HSD1 (hereinafter recombinant HSD1) expressed using a baculo-virus system as an enzyme source. For the reaction, a reagent was added to a 96 well plate (96 well Opti-plates™-96 (Packard)) to the following final concentration and a volume of 100 μl was reacted at room temperature for 90 min. The reaction solution used was 0.1 μg/ml recombinant HSD1, 500 μM NADPH, 16 nM ^3H cortisone (Amersham Biosciences, 1.78 Tbq/mol) dissolved in 0.1% BSA (Sigma)-containing PBS and the test drug was 2 μl of a compound solution (dissolved in DMSO). After 90 min, the reaction was stopped by adding PBS (40 μl, containing 0.1% BSA (Sigma)) containing 0.08 μg of anti-cortisol mouse monoclonal antibody (East Coast Biologics), 365 μg SPA PVT mouse antibody-binding beads (Amersham Biosciences) and 175 μM carbenoxolone (Sigma) to the reaction solution. After the completion of the reaction, the plate was incubated overnight at room temperature and the radioactivity was measured by Topcount (Packard). For control, the value (0% inhibition) of the well containing 2 μl of DMSO instead of the test drug was used, and for positive control, the value (100% inhibition) of the well containing carbenoxolone instead of the test drug at the final concentration of 50 μM was used. The inhibition (%) of the test drug was calculated by ((value of control−value of test drug)/(value of control−value of positive control))×100 (%). The IC50 value was analyzed using a computer-based curve fitting soft.
T1 sequence (P28845 whole entry): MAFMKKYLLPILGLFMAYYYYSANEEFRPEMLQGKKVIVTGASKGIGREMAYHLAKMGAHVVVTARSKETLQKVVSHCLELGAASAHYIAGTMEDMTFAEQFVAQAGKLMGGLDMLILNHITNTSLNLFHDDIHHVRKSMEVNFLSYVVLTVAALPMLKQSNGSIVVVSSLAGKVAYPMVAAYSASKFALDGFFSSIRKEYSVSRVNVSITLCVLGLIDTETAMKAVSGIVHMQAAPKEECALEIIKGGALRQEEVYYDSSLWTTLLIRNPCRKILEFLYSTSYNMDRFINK
Consider `Cn1c(N2CCC(C)(C)CC2)nnc1C1(c2ccccc2)CC1` [Ex. 2-58], for which the IC50 (usually the midpoint of a concentration-inhibition curve) was < 10 nM. In the case of `Cn1c(C2CCN(c3c(Cl)cncc3Cl)CC2)nnc1C1(c2ccccc2)CCCC1` [Ex. 1-13] it was < 10 nM; in that of `COC(=O)C1CCN(c2nnc(C3(c4ccccc4)CC3)n2C)CC1` [Ex. 2-4], 10 to 1000 nM.

Take `Cn1c(-c2ccc(NC(=O)CN3CCC(O)CC3)cc2Cl)nnc1C1(c2ccccc2)CC1` [Ex. 1-43]: the concentration for half-maximal inhibition (IC50) lay in the range of 10 to 1000 nM. In the case of `Cn1c(-c2ccc(N3CCC(C(=O)O)CC3)cc2Cl)nnc1C1(c2ccccc2)CC1` [Ex. 1-59] it was 10 to 1000 nM. In the case of `CC(=O)N1CCN(c2nnc(C3(c4ccccc4)CC3)n2C)CC1` [Ex. 2-27] it was 10 to 1000 nM; in that of `Cn1c(-c2ccncc2Cl)nnc1C1(c2ccccc2)CC1` [Ex. 1-96], < 10 nM; in that of `Cn1c(-c2ccc(OCCN)cc2Cl)nnc1C1(c2ccccc2)CC1` [Ex. 1-130], 10 to 1000 nM. As for `Cn1c(-c2ccc(N)cc2Cl)nnc1C1(c2ccccc2)CC1` [Ex. 1-26], the figure is < 10 nM; as for `COCC(=O)Nc1ccc(-c2nnc(C3(c4ccccc4)CC3)n2C)c(Cl)c1` [Ex. 1-24], < 10 nM; as for `Cn1c(-c2ccc(C(N)=O)cc2Cl)nnc1C1(c2ccc(F)cc2)CC1` [Ex. 1-127], < 10 nM. As to `Cn1c(-c2ccc(Cl)cc2[N+](=O)[O-])nnc1C1(c2ccccc2)CC1` [Ex. 1-93], the IC50 was < 10 nM. `Cn1c(N2CCC(C)(C(N)=O)CC2)nnc1C1(c2ccccc2)CC1` [Ex. 2-70]: the IC50 is < 10 nM. In the case of `Cn1c(N2CCC(Nc3ncc(Cl)cc3Cl)CC2)nnc1C1(c2ccccc2)CC1` [Ex. 2-33] it was 10 to 1000 nM; in that of `CC(C)n1c(-c2ccc(Cl)cc2)nnc1C1(c2ccc(F)cc2)CC1` [Ex. 1-106], < 10 nM. In the case of `Clc1cnc(OC2CCN(c3nnc(C4(c5ccccc5)CC4)n3C3CC3)CC2)c(Cl)c1` [Ex. 2-78] it was < 10 nM; in that of `Cn1c(N2CCS(=O)(=O)CC2)nnc1C1(c2ccccc2)CC1` [Ex. 2-22], 10 to 1000 nM; in that of `Cn1c(-c2ccc(Cl)cc2Cl)nnc1C1(c2ccccc2)CC1` [Ex. 1-18], < 10 nM. For `CN(C)c1ccc(-c2nnc(C3(c4ccccc4)CC3)n2C)c(Cl)c1` [Ex. 1-89], the IC50 is < 10 nM.

In the case of `Cn1c(-c2ccc(NC(=O)N3CCOCC3)cc2Cl)nnc1C1(c2ccccc2)CC1` [Ex. 1-30], the IC50 is < 10 nM. As for `Cn1c(N2Cc3ccccc3C2)nnc1C1(c2ccccc2)CC1` [Ex. 2-91], the figure is < 10 nM; as for `CCCn1c(N2CCC(Oc3ncc(Cl)cc3Cl)CC2)nnc1C1(c2ccccc2)CC1` [Ex. 2-71], 10 to 1000 nM. As for `Cn1c(-c2ccc(NS(N)(=O)=O)cc2Cl)nnc1C1(c2ccccc2)CC1` [Ex. 1-34], the figure is < 10 nM; as for `Cn1c(-c2ccc(C(N)=O)cc2Cl)nnc1C1(c2cccs2)CC1` [Ex. 1-144], < 10 nM. As for `Cn1c(-c2ccc(NC3CCN(C(=O)OC(C)(C)C)CC3)cc2Cl)nnc1C1(c2ccccc2)CC1` [Ex. 1-32], the figure is < 10 nM. In the case of `CC(C)n1c(-c2cccc(C(N)=O)c2)nnc1C1(c2ccccc2)CC1` [Ex. 1-160], the IC50 was < 10 nM. As to `Cn1c(N2CCC(Oc3ccc(Cl)cc3Cl)CC2)nnc1C1(c2ccccc2)CC1` [Ex. 2-73], the IC50 was < 10 nM. In the case of `CC(=O)NC1CCN(c2nnc(C3(c4ccccc4)CC3)n2C)CC1` [Ex. 2-9] it was 10 to 1000 nM; in that of `Cn1c(N2CCOCC2)nnc1C1(c2ccccc2)CC1` [Ex. 2-20], < 10 nM; in that of `CONC(=O)Nc1ccc(-c2nnc(C3(c4ccc(F)cc4)CC3)n2C(C)C)cc1` [Ex. 1-153], < 10 nM. Consider `Clc1cnc(OC2CCN(c3nnc(C4(c5ccccc5)CC4)n3CC3CC3)CC2)c(Cl)c1` [Ex. 2-76], for which the IC50 is < 10 nM. As for `COC1(c2ccccc2)CCN(c2nnc(C3(c4ccccc4)CC3)n2C)CC1` [Ex. 2-42], the figure is 10 to 1000 nM; as for `Cn1c(-c2ccc(C(=O)N3CCOCC3)cc2Cl)nnc1C1(c2ccccc2)CC1` [Ex. 1-74], 10 to 1000 nM; as for `COC1CCN(c2nnc(C3(c4ccccc4)CC3)n2C)CC1` [Ex. 2-43], 10 to 1000 nM. On to `COC(=O)CCn1c(C2CCN(c3c(Cl)cncc3Cl)CC2)nnc1C1(c2ccccc2)CC1` [Ex. 1-8], for which the IC50 is < 10 nM. As for `CN(C(=O)OC(C)(C)C)C1CCN(c2nnc(C3(c4ccccc4)CC3)n2C)CC1` [Ex. 2-11], the figure is 10 to 1000 nM; as for `Cn1c(-c2ccc(N3CCC(O)C3)cc2Cl)nnc1C1(c2ccccc2)CC1` (centres unmarked) [Ex. 1-131], < 10 nM. As for `Cn1c(-c2ccc(C(C)(O)C(F)(F)F)cc2Cl)nnc1C1(c2ccccc2)CC1` (centres unmarked) [Ex. 1-102], the figure is < 10 nM. In the case of `CC(C)C(=O)N1CCN(c2ccc(-c3nnc(C4(c5ccccc5)CC4)n3C)c(Cl)c2)CC1` [Ex. 1-51] it was < 10 nM; in that of `Cn1c(-c2ccc(C(=O)O)cc2Cl)nnc1C1(c2ccccc2)CC1` [Ex. 1-72], 10 to 1000 nM; in that of `Cn1c(N2CCC(C(N)=O)CC2)nnc1C1(c2ccccc2)CC1` [Ex. 2-16], < 10 nM. As to `CNC(=O)C1CCN(c2ccc(-c3nnc(C4(c5ccccc5)CC4)n3C)c(Cl)c2)CC1` [Ex. 1-60], the IC50 was < 10 nM. Regarding `COC(=O)C1(c2ccccc2)CCN(c2nnc(C3(c4ccccc4)CC3)n2C)CC1` [Ex. 2-2], the IC50 is 10 to 1000 nM.

For `COC(=O)C1(C)CCN(c2nnc(C3(c4ccccc4)CC3)n2C)CC1` [Ex. 2-67], the IC50 was < 10 nM. As for `Cn1c(N2CCC(Oc3ccc(Cl)c(C(=O)O)c3)CC2)nnc1C1(c2ccccc2)CC1` [Ex. 2-64], the figure is 10 to 1000 nM; as for `CC(C)n1c(-c2ccc(C(N)=O)cc2)nnc1C1(c2ccccc2)CC1` [Ex. 1-132], < 10 nM.

Consider `Cn1c(-c2ccc(OCC(N)=O)cc2Cl)nnc1C1(c2ccccc2)CC1` [Ex. 1-69], for which the IC50 is < 10 nM. In the case of `Cn1c(N2CCC(=O)CC2)nnc1C1(c2ccccc2)CC1` [Ex. 2-48] it was < 10 nM; in that of `COC1CCN(C(=O)Nc2ccc(-c3nnc(C4(c5ccccc5)CC4)n3C)c(Cl)c2)CC1` [Ex. 1-40], 10 to 1000 nM; in that of `COC(=O)[C@H]1CC[C@H](c2nnc(C3(c4ccccc4)CC3)n2C)CC1` [Ex. 1-104], 10 to 1000 nM. With `Cn1c(N2CCC(Oc3ccc(C#N)cc3)CC2)nnc1C1(c2ccccc2)CC1` [Ex. 2-52], the IC50 is < 10 nM. For the compound `Cn1c(N2CCC(Oc3ccc(F)cc3Cl)CC2)nnc1C1(c2ccccc2)CC1` [Ex. 2-36], the IC50 is < 10 nM. For the compound `COC(=O)c1cc(OC2CCN(c3nnc(C4(c5ccccc5)CC4)n3C)CC2)ccc1Cl` [Ex. 2-62], the IC50 lay in the range of 10 to 1000 nM. As for `Cn1c(N2CCC(CCO)CC2)nnc1C1(c2ccccc2)CC1` [Ex. 2-61], the figure is < 10 nM. For `Cn1c(-c2ccc(C(=O)NCCN3CCOCC3)cc2Cl)nnc1C1(c2ccccc2)CC1` [Ex. 1-88], the 50% inhibitory concentration (IC50) lay in the range of 10 to 1000 nM. As for `CCn1c(-c2ccc(C(N)=O)cc2Cl)nnc1C1(c2ccc(F)cc2)CC1` [Ex. 1-159], the figure is < 10 nM. In the case of `Cn1c(N2CCC(NC(=O)c3ccc(Cl)cc3Cl)CC2)nnc1C1(c2ccccc2)CC1` [Ex. 2-10] it was 10 to 1000 nM. Regarding `Cn1c(C2CCN(c3ncccc3Cl)CC2)nnc1C1(c2ccccc2)CCCC1` [Ex. 1-2], the IC50 is < 10 nM. As to `Cn1c(N2CCC(C)(O)CC2)nnc1C1(c2ccccc2)CC1` [Ex. 2-59], the IC50 was < 10 nM. As for `Cn1c(N2CCC(O)(c3ccccc3)CC2)nnc1C1(c2ccccc2)CC1` [Ex. 2-40], the figure is 10 to 1000 nM.

On to `COC(=O)c1ccc(OC2CCN(c3nnc(C4(c5ccccc5)CC4)n3C)CC2)cc1` [Ex. 2-47], for which the IC50 lay within 10 to 1000 nM. In the case of `Cn1c(-c2ccc(O)cc2Cl)nnc1C1(c2ccccc2)CC1` [Ex. 1-68], the IC50 is < 10 nM. For `Cn1c(N2CCC(Oc3c(Cl)cncc3Cl)CC2)nnc1C1(c2ccccc2)CC1` [Ex. 2-86], the IC50 is 10 to 1000 nM.

As for `Cn1c(-c2ccc(N3CCC(C(=O)N4CCCCC4)CC3)cc2Cl)nnc1C1(c2ccccc2)CC1` [Ex. 1-113], the IC50 was < 10 nM. Take `CC(=O)NCCNC(=O)c1ccc(-c2nnc(C3(c4ccccc4)CC3)n2C)c(Cl)c1` [Ex. 1-84]: the IC50 lay within 10 to 1000 nM.

With `Cn1c(N2CCCCC2)nnc1C1(c2ccccc2)CC1` [Ex. 2-14], the IC50 is < 10 nM. Regarding `Cn1c(-c2ccc(C(=O)N3CCC(O)CC3)cc2Cl)nnc1C1(c2ccccc2)CC1` [Ex. 1-81], the IC50 was 10 to 1000 nM.

`Cn1c(C2CCN(c3c(Cl)cncc3Cl)CC2)nnc1C1(c2ccccc2)CC1` [Ex. 1-15]: the IC50 is < 10 nM.

Take `CN(c1ccccc1)c1nnc(C2(c3ccccc3)CC2)n1C` [Ex. 2-93]: the IC50 was < 10 nM. As for `COCCOC(=O)C1CCN(c2ccc(-c3nnc(C4(c5ccccc5)CC4)n3C)c(Cl)c2)CC1` [Ex. 1-62], the figure is < 10 nM; as for `Cn1c(N2CCC(Oc3ccc(Cl)cc3)CC2)nnc1C1(c2ccccc2)CC1` [Ex. 2-35], < 10 nM.

The values are drawn from patent US8153631B2, “Triazole compounds and uses related thereto” (Amgen Inc., priority 2003, dated 2012).
